# Assay results taken from US10352938B2, “Macrocyclic HOPO chelators” (LUMIPHORE, INC., priority 2009, dated 2019).
# Where two headings read alike, the source gives them in different places.
# What was measured:
# [1] = cited from earlier work; for τ (D2O): first component where two are printed; for τ (H2O): first (longer) component; for q / q, second species: number of inner sphere water molecules; for q: first species; for τ (H2O), second component: second (shorter) component of biexponential decay
# [2] = competitive batch titration using DTPA in 0.1M TRIS pH = 7.4 and 0.1M KCl; cited from earlier work
# [3] = Triplet excited state energy from phosphorescence of Gd complexes at 77K; assay type: physicochemical; details: solid matrix (methanol/ethanol 1/4), using the Gd complexes
# Procedure: Estimation of the energies of the ligand based triplet excited state were determined using the Gd(III) complexes. Gadolinium was chosen because it is a 4f^7 lanthanide cation having a similar 4f electronic configuration and size as the europium cation (4f^6), but lacking an accessible metal based low energy electronic excited state. At room temperature, only a broad weak emission centered between 380-400 nm can be seen for the Gd(III) complexes. […] At 77K, in solid matrix, an emission band at approx. 500 nm can be seen (FIG. 8). This emission, red-shifted compared to the singlet excited state, can be assigned to phosphorescence from the triplet excited state, lower in energy than the singlet excited state observed at room temperature. Selective time gated phosphorescence spectra (delay 0.1 ms) of the gadolinium complexes at 77K are depicted in FIG. 8.
# [4] = cited from earlier work; for λ: absorption maximum; for ε: extinction coefficient
# [5] = Calculation of Eu luminescence parameters (radiative lifetime, rate constants, efficiencies); assay type: physicochemical; details: listed as [Eu(H(22)-1,2-HOPO)]
# Procedure: In this equation, the ηISC ηET term is termed the sensitization efficiency, ηsens (ηsens=ηISC ηET). All the luminescence parameters τR (the pure radiative luminescence lifetime), kR and knR (the radiative and non-radiative constant rate) can be deduced. These parameters were calculated for five of the octadentate complexes and the model complex that present only one species in solution at pH=7.4 and are reported in Table 6.
# [6] = Luminescence quantum yield, emission and brightness in aqueous 0.1 M TRIS buffer; assay type: physicochemical; details: for øTot: 0.1M TRIS buffer pH = 7.4; for Brightness: at maximum absorption, product of quantum yield and molar absorption coefficient, 0.1 M TRIS pH = 7.4; for overall quantum yield (in words): related to inner-sphere coordinated water
# Procedure: Quantum Yield. Quantum yield will be measured using established methods. Fluorescence quantum yield Q are measured in diluted solution with an optical density lower than 0.1 using the following equation Qx/Qr=[Ar(λr)/Ax(λx)][nx^2/nr^2][Dx/Dr] were A is the absorbance at the excitation wavelength (λ), n the refractive index and D the integrated luminescence intensity. Subscripts “r” and “x” stand for reference and sample, respectively. References will be a quinine bisulfate in 1N sulfuric acid in aqueous solution (Qt=0.546)^1 and Ru(bpy)3 2C1 complexes in water solution (Qr=0.028)^2 for all complexes. A plot of integrated emission intensity (i.e. Dr) versus absorbance (i.e. Ar(λr)) yields a linear plot with a slope which can be equated to the reference quantum yield Qr. By analogy, for the unknown sample, a plot of integrated emission intensity (i.e. Dx) versus absorbance (i.e. Ax(λx)) yields a linear plot and Qx can then be evaluated. A minimum of at least two independent measurements will be averaged to derive a reliable value.
# [7] = quantum yield; cited from earlier work
# [8] = UV/visible absorption spectroscopy of Eu(III) complexes in TRIS buffer; assay type: physicochemical; details: TRIS buffer pH = 7.4
# Text: Extinction Coefficient. A series of solutions of varied concentrations will be prepared from the solids based on mass and purity. The absorbance of each of these solutions at both 340 nm and at the appropriate acceptor wavelength will be measured and plotted according to Beer's Law (A=εcL where A is absorbance, ε is the extinction coefficient in M^−1 cm^−1, c is concentration, and L is path length in cm) with the fitted linear regression slope equal to […] on a plot of A as a function of C.
# Each of the spectra have absorption maxima around 335-340 nm (FIG. 2). Those bands are composed of two electronic transitions; at higher energy, a purely π-π* transition and, at slightly lower energy (around ca. 320 nm), a π-π* transition with some n-π* character, as evidenced previously from TD-DFT calculations. […] This interaction gives maxima blue-shifting from 341 nm for [Eu(H(2,2)-1,2-HOPO)]^0 to 334 nm for [Eu(H(17O5,2)-1,2-HOPO)]^0 (as low as 332 nm for)[Eu(5LIN^Me-1,2HOPO)2]^0).
# [9] = Luminescence lifetimes (TRIS buffer, deuterated water, 77K) and inner sphere water number q; details: for τ^D / τ^D, second component: deuterated solution; for τ^D / τ (77K): first component; for q / q, second species: inner sphere water molecules; for q: improved Horrock's equations, first species; for τ (77K) / τ (77K), second component: solid matrix at 77K (methanol/ethanol 1/4)
# Procedure: Fluorescent decay signals can be acquired using an IBH DataStation Hub photon counting module and data analysis performed using the commercially available DAS 6 decay analysis software package from HORIBA Jobin Yvon IBH. Goodness of fit will be assessed by minimizing the reduced chi squared function, χ2, and a visual inspection of the weighted residuals. Each trace will use at least 10,000 points and the reported lifetime values result from at least three independent measurements.
# In addition to the steady state emission spectra, the luminescence quantum yields and luminescence lifetimes of the Eu(III) complexes were also measured in aqueous solution with 0.1 M TRIS buffer pH=7.4 and in deuterated solution to estimate the number of inner sphere water molecule (i.e. q) using the improved Horrock's equations.
# Luminescence lifetimes were also determined at 77K, in a solid matrix (Table 5), which have allowed us to determine whether back energy transfer between the donor triplet excited state and the acceptor manifold excited state of the lanthanide is present, or alternately whether quenching via low lying LMCT state occurs.
# [10] = Stability titration (pEu) by competitive batch titration using DTPA; assay type: physicochemical; details: for pEu value as compared to DTPA: in words
# Procedure: Stability Titrations. The general procedure used to determine the pEu values of ligands was adapted from an already described study using Gd and are similar to that already reported for other complexes. Different volumes of a standardized DTPA stock solution were added to solutions of constant ligand, metal, and electrolyte concentrations. Concentrations of complexed ligand in each solution were determined by subtracting the remaining luminescence intensity after addition of DTPA to the initial luminescence intensity at identical pH and those concentrations were used as references for the analysis. Stability of compounds towards mM concentrations of EDTA and divalent cations will be assessed by incubation of the proposed molecules at nM concentration at room temperature in aqueous solutions of test ions. Time Resolved Fluorescent signal will be assessed at the outset of experiment and monitored over a minimum of 24 hours to determine signal change.
# [11] = listed as [Eu(H(2,2)-1,2HOPO)]^0
# [12] = listed as [Eu(H(2,2)-1,2-HOPO)]^0
# [13] = listed as [Eu(H(3,2)-1,2HOPO)]^0
# [14] = listed as [Eu(H(4,2)-1,2HOPO)]^0
structure (smiles),measurement,setting,value
O=C(NCCN(CCCCN(CCNC(=O)c1cccc(=O)n1O)CCNC(=O)c1cccc(=O)n1O)CCNC(=O)c1cccc(=O)n1O)c1cccc(=O)n1O [Eu(H2)],τ (D2O),[1],1222 μs
same,τ (H2O),[1],480 μs
same,q,[1],1.1
same,pEu,[2],21.2
same,T0-0 (triplet excited state energy),[3]; [11],"21,980 cm^−1"
same,λ,[4],341 nm
same,ε,[4],"18,200 M^1 cm^−1"
same,η^Eu,[5]; efficiency of metal centred luminescence,0.160
same,knr,[5]; non-radiative rate constant,1750 s⁻¹
same,τrad,"[5]; pure radiative luminescence lifetime, aqueous TRIS pH = 7.4",3000 μs
same,kr,[5]; radiative rate constant,333 s⁻¹
same,η^sens,[5]; sensitization efficiency,0.225
same,øTot,[6]; [11],0.036
same,ϕTot,"[6]; aqueous TRIS pH = 7.4, complexes with only one species, listed as [Eu(H(22)-1,2-HOPO)]",0.036
same,Brightness,[6]; [12],655 M⁻¹ cm⁻¹
same,Brightness,[6]; [11],655 M⁻¹ cm⁻¹
same,overall quantum yield (in words),[6],low quantum yields
same,ϕEu,[7],0.036
same,λ^maxabs,[8]; [12],341 nm
same,ε,[8]; [11],"18,200 M^−1 · cm^−1"
same,λ^maxabs,[8]; [11],341 nm
same,τ,"[9]; aqueous TRIS pH = 7.4, listed as [Eu(H(22)-1,2-HOPO)]",480 μs
same,τ^D,[9]; [11],1222 μs
same,q,[9]; [11],1.1
same,τ (77K),[9]; [11],914 μs
O=C(NCCN(CCCCN(CCNC(=O)c1cccc(=O)n1O)CCNC(=O)c1cccc(=O)n1O)CCNC(=O)c1cccc(=O)n1O)c1cccc(=O)n1O [Eu(H3)],pEu value as compared to DTPA,[10],decreased
same,decrease in stability relative to Eu(H8-2) and Eu(H11-3),[10]; pEu difference,2.9 log unit
same,τ (D2O),[1],811 μs
same,"τ (D2O), second component",[1],369 μs
same,τ (H2O),[1],552 μs
same,"τ (H2O), second component",[1],253 μs
same,q,[1],0.3
same,"q, second species",[1],1.0
same,pEu,[2],17.5
same,T0-0 (triplet excited state energy),[3]; [13],"21,900 cm^−1"
same,λ,[4],339 nm
same,ε,[4],"17,700 M^1 cm^−1"
same,øTot,[6]; [13],0.037
same,Brightness,[6]; [13],655 M⁻¹ cm⁻¹
same,overall quantum yield (in words),[6],low quantum yields
same,ϕEu,[7],0.037
same,ε,[8]; [13],"17,700 M^−1 · cm^−1"
same,λ^maxabs,[8]; [13],339 nm
same,τ^D,[9]; [13],811; μs
same,"τ^D, second component",[9]; [13],369 μs
same,q,"[9]; listed as [Eu(H(3,2)-1,2-HOPO)]^0",0.3
same,q,[9]; [13],0.3;
same,"q, second species",[9]; [13],1.0
same,τ (77K),[9]; [13],1040; μs
same,"τ (77K), second component",[9]; [13],781 μs
O=C(NCCN(CCCCN(CCNC(=O)c1cccc(=O)n1O)CCNC(=O)c1cccc(=O)n1O)CCNC(=O)c1cccc(=O)n1O)c1cccc(=O)n1O [Eu(H4)],pEu value as compared to DTPA,[10],decreased
same,τ (D2O),[1],803 μs
same,"τ (D2O), second component",[1],338 μs
same,τ (H2O),[1],649 μs
same,"τ (H2O), second component",[1],236 μs
same,q,[1],0
same,"q, second species",[1],1.1
same,pEu,[2],18.4
same,T0-0 (triplet excited state energy),[3]; [14],"22,390 cm^−1"
same,λ,[4],337 nm
same,ε,[4],"17,900 M^1 cm^−1"
same,øTot,"[6]; listed as [Eu(H(4,2)-1,2-HOPO)]^0",0.031
same,øTot,[6]; [14],0.031
same,Brightness,[6]; [14],555 M⁻¹ cm⁻¹
same,overall quantum yield (in words),[6],low quantum yields
same,ϕEu,[7],0.031
same,ε,[8]; [14],"17,900 M^−1 · cm^−1"
same,λ^maxabs,[8]; [14],337 nm
same,τ^D,[9]; [14],803; μs
same,"τ^D, second component",[9]; [14],338 μs
same,q,[9]; [14],0;
same,"q, second species",[9]; [14],1.1
same,τ (77K),[9]; [14],902; μs
same,"τ (77K), second component",[9]; [14],645 μs
